The text below walks through data of ChEMBL document CHEMBL5375981, “Enhanced Tumor Targeting and Penetration of Proteolysis-Targeting Chimeras through iRGD Peptide Conjugation: A Strategy for Precise Protein Degradation in Breast Cancer” (J Med Chem, 2023).

Active and inactive are the calls of the source. The rule behind the calls is not given here.

Data set [1] deals with Mus musculus. Description: In vivo induction of BRD4 degradation in BALB/C mouse xenografted with human MDA-MB-231 cells assessed as reduction in BRD4 level in tumor at 5 to 8 uM, iv administered every other day and measured after 21 days by immunohistochemistry analysis. The settings on record: dose 5-8 µM, time 21.0 day. The class given is functional, organism-based. A general note: A xenograft is tissue or cells of one species grown in another, often human tumour cells in immunodeficient mice.

The nature of data set [2]: Toxicity in BALB/C mouse xenografted with human MDA-MB-231 cells assessed as liver damage at 5 to 8 uM, iv administered every other day for 21 days and measured 37 days post treatment by H and E staining based assay. In kind it is organism-based. The conditions noted are these: in vivo, 1392 h, dose 5-8 µM, time 58 day.
Data set [3] in a line: Toxicity in BALB/C mouse xenografted with human MDA-MB-231 cells assessed as effect on kidney weight at 5 to 8 uM, iv administered every other day for 21 days. The settings on record: in vivo, 504 h, dose 5-8 µM, time 21 day. In kind it is organism-based.
The test system of data set [4] is MDA-MB-231. Briefly: Antitumor activity against human MDA-MB-231 cells xenografted in BALB/C nude mouse assessed as inhibition of cell proliferation by measuring reduction in number of Ki67-stained cells at 5 to 8 uM, iv administered every other day and measured after 21 days by immunohistochemistry. In kind it is functional, organism-based. The conditions noted are these: dose 5-8 µM, time 21.0 day.

Data set [5] addresses Bromodomain-containing protein 4 (Homo sapiens) (UniProt O60885). Briefly: Induction of BRD4 degradation in human MDA-MB-231 cells harboring high integrin alphaVbeta3 expression assessed as reduction in BRD4 levels at 500 nM incubated for 12 hrs by immunofluorescence staining based confocal microscopic analysis. The class given is cell-based.
Data set [6] deals with MDA-MB-231. Briefly: Antitumor activity against human MDA-MB-231 cells xenografted in BALB/C nude mouse assessed as induction of apoptosis in tumor cells at 5 to 8 uM, iv administered every other day and measured after 21 days by immunohistochemistry. The class given is functional, organism-based. The conditions noted are these: dose 5-8 µM, time 21.0 day.
In data set [7] the target is Bromodomain-containing protein 4 (Homo sapiens) (UniProt O60885). Briefly: Induction of BRD4 degradation in human MDA-MB-231 cells harboring high integrin alphaVbeta3 expression assessed as reduction in BRD4 levels at 500 nM pretreated with NRP-1 inhibitor EG00229 for 2 hrs followed by compound addition and measured after 12 hrs by immunofluorescence staining based confocal microscopic analysis. In kind it is cell-based.

Data set [8] is described as follows: Solubility in distilled water measured for 30 mins by ultraviolet spectrophotometry analysis. In kind it is physicochemical.
The test system of data set [9] is MDA-MB-231. Description: Antitumor activity against human MDA-MB-231 cells xenografted in BALB/C nude mouse assessed as disruption of tumor blood vessel wall at 5 uM, iv administered every other day and measured after 21 days by H and E staining based assay. The class given is functional, organism-based. The conditions noted are these: time 21.0 day.
The test system of data set [10] is MDA-MB-231. Description: Antimigratory activity against human MDA-MB-231 cells harboring high integrin alphaVbeta3 expression assessed as inhibition of cell migration incubated for 48 hrs by crystal violet staining based transwell assay. The class given is functional. The conditions noted are these: dose 200-300 nM.

For orientation: solubility means the dissolved amount per volume that the medium holds. In the case of `Cc1ncsc1-c1ccc([C@H](C)NC(=O)[C@@H]2C[C@@H](OC(=O)OCCSSCCOC(=O)CCC(=O)NCCCC[C@@H]3NC(=O)[C@H](CC(=O)O)NC(=O)CNC(=O)[C@H](CCCNC(=N)N)NC(=O)[C@@H](N)CSSC[C@@H](C(=O)O)NC(=O)[C@H](CC(=O)O)NC(=O)[C@@H]4CCCN4C(=O)CNC3=O)CN2C(=O)[C@@H](NC(=O)COCCOCCOCCNC(=O)C[C@@H]2N=C(c3ccc(Cl)cc3)c3c(sc(C)c3C)-n3c(C)nnc32)C(C)(C)C)cc1`, the result in [1], in data set [4], in data set [5], in data set [6] and in data set [9] was Active. Besides, the Activity entry in [2] was “Non-Toxic”; in data set [3] it was “Non-Toxic”; in [10], “Dose-Dependent Effect”. Further, the outcome in [7] was inactive. Also, the solubility at 0.5 h in data set [8] is above 10 mM.
